Reference: ChEMBL document CHEMBL5465560, “Selectivity Literature for EUbOPEN Chemogenomic Library” (2024)

Key:
[1] = test system: T1, Receptor-type tyrosine-protein kinase FLT3 (Homo sapiens), P36888 [R834Q]; assay: Selectivity interaction (KinomeScan (DiscoverX)) EUB0000666a FLT3; conditions: at 10 µM
T1 sequence (whole entry): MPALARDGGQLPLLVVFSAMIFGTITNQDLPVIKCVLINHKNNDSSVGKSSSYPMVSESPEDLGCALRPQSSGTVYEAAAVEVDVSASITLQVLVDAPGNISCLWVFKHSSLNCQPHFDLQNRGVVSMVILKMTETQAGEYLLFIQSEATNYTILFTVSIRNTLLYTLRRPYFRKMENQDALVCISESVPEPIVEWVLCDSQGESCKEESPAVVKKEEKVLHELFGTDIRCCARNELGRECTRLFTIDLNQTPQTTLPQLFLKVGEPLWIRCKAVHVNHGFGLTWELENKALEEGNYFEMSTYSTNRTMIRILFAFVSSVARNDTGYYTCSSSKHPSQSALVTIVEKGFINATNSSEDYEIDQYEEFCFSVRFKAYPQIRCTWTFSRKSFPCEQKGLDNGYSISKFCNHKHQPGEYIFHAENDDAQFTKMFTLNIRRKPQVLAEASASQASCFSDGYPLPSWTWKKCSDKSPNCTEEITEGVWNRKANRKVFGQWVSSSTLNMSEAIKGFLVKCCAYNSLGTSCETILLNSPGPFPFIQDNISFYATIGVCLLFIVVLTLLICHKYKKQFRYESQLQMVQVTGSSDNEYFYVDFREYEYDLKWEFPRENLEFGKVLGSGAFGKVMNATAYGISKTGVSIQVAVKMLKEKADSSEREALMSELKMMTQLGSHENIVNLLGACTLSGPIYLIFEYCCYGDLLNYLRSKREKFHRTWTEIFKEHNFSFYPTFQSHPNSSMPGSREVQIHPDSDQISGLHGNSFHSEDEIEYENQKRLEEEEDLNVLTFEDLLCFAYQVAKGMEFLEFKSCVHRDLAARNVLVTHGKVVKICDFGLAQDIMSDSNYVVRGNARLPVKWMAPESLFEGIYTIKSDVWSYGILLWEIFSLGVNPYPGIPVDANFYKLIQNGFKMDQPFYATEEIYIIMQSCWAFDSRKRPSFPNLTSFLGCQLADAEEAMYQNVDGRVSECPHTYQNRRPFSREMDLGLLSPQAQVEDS

[2] = target: T2, Interleukin-1 receptor-associated kinase 3 (Homo sapiens) (UniProt Q9Y616); assay: Selectivity interaction (LanthaScreen Eu Kinase Binding Assay) EUB0001632a IRAK3; conditions: at 10 µM
T2 sequence (whole entry): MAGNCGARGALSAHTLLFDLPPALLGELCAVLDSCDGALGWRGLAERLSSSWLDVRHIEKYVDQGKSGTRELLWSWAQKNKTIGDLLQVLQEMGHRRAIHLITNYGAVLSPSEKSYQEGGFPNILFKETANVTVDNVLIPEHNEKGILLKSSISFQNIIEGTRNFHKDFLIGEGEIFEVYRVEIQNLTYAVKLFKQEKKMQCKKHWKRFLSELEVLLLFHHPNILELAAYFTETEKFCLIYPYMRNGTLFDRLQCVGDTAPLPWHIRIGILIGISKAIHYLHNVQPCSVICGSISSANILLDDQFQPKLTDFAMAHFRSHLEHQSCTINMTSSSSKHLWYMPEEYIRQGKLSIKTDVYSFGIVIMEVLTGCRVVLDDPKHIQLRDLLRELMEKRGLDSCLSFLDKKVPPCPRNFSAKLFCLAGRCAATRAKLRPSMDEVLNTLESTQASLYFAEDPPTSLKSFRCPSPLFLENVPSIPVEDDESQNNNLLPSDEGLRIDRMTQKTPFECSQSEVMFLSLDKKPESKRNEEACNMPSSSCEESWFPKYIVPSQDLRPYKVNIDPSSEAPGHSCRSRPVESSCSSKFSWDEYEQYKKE

[3] = target: T3, Dual specificity mitogen-activated protein kinase kinase 6 (Homo sapiens) (UniProt P52564); assay: Selectivity interaction (ActivX KiNativ screen (kinase selectivity in THP-1 cell lysates)) EUB0000639a MAP2K6; format: subcellular; conditions: lysate
T3 sequence (whole entry): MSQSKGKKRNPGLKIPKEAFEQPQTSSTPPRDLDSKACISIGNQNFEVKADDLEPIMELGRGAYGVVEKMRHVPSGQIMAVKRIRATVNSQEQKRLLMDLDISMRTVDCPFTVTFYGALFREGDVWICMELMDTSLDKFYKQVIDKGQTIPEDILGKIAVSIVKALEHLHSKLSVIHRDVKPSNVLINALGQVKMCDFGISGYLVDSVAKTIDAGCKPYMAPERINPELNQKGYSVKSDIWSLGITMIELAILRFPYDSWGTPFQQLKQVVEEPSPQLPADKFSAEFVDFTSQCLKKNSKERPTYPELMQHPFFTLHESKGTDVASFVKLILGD

[4] = target: T4, Dual specificity mitogen-activated protein kinase kinase 4 (Homo sapiens) (UniProt P45985); assay: Selectivity interaction (KinomeScan (DiscoverX)) EUB0001049a MAP2K4; conditions: at 1 µM
T4 sequence (whole entry): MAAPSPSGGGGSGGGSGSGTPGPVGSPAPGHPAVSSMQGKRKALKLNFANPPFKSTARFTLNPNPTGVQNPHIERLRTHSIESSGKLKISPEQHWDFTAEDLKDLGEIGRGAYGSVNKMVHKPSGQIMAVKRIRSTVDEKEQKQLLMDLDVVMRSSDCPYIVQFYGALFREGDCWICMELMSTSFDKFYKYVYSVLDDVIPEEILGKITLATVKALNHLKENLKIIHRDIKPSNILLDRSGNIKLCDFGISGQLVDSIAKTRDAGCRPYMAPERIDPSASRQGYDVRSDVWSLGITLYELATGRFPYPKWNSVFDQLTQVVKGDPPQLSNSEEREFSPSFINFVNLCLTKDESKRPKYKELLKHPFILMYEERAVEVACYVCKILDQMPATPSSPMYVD

## O=C(NOC[C@H](O)CO)c1ccc(F)c(F)c1Nc1ccc(I)cc1F
[1]
  % of control: 78%

## Cn1cc(-n2cnc3c(NCc4nc5cc(Cl)c(Cl)cc5[nH]4)nc(N4CCOCC4)nc32)cn1
[2]
  % of inhibition: -15.9%

## CC[C@@H]1[C@H](F)C(=O)N[C@@H]1COc1nccc2cc(C(N)=O)c(OC)cc12 [ZIMLOVISERTIB]
[3]; at 0.01 µM
  % of inhibition: 10.3%
[3]; at 0.04 µM
  % of inhibition: -4.9%
[3]; at 0.2 µM
  % of inhibition: -20.6%
[3]; at 1 µM
  % of inhibition: 17.5%
[3]; at 5 µM
  % of inhibition: 62.3%

## COc1cc(Nc2nc(C)cc(-c3cnn4nc(OC)ccc34)n2)cc(C(F)(F)F)c1
[4]
  % of control: 74%
